The values that follow come from a melting point compilation (Tetko et al.; mined from patent text by program, amines drawn as free bases though some values may be those of a salt).

As a reminder, the melting point is the temperature of the solid-liquid transition.

Consider `COC(=O)c1ccc(=O)n(CCN(C)C(=O)c2cccnc2)c1`, for which the melting point is 120 to 122 °C.

Compound `CCc1c(C)sc(NC(=O)OC(C)(C)C)c1C(=O)O` yielded a melting point of 196 to 197 °C. For `CCOP(=O)(CC(=O)N1c2ccccc2NC(=O)c2ccccc21)OCC` the value was 195 to 197 °C. As to `CCOC(=O)c1ccc(SC)cc1C(=O)OCC`, the melting point lay within 178 to 181 °C. `CCOc1nc2cc(C)nn2c2cc(Cl)ncc12` registered a melting point of 176 °C. `CCOCCOCCn1c(C=O)cc2c1CC(c1ccccc1Cl)C1C(=O)NC(=O)C21` (configuration not stated) displayed a melting point of 190 to 193 °C. Compound `O=C1CCCC(c2ccc(Cl)cc2)N1c1cccnc1` (configuration not stated) came in with a melting point of 107 to 108 °C. With `Cc1cc(-c2cnn3c(C(F)(F)F)cc(-c4ccc(Cl)cc4)nc23)cc(C)n1`, the melting point came to 256 °C. `CCOC(=O)CCc1ccc(N[C@@H](CCC(N)=O)C(=O)O)cc1` showed a melting point of 180 to 181 °C. For the compound `CC(C)(C)OC(=O)C1(O/N=C(\C(=O)O)c2csc(NC(c3ccccc3)(c3ccccc3)c3ccccc3)n2)CC1`, the melting point was 157 °C. For `CC1CC2C3CCC4=CC(=O)CCC4=C3CCC2(C)C1O` (configuration not stated), the melting point lay within 146 to 148 °C.

As to `CCOCc1nc2c(N)nc3cc(-c4cccc(C(=O)N5CCOCC5)c4)cnc3c2n1CC(C)(C)O`, the melting point was in the range of 149 to 152 °C. As to `CCNS(=O)(=O)c1ccc(N)c(C(=O)N2CCN(C)CC2)c1`, the melting point lay within 175 to 177 °C. As to `O=C(O)[C@@H](Cc1ccccc1)Oc1c(Br)cc(-c2c3ccccc3c(C(F)(F)F)c3sc4ccccc4c23)cc1Br`, the melting point fell in the range of 109 to 143 °C. For `CC(C)Nc1nc(-c2ccccc2)c(-c2ccc(=O)n(C(C)C)n2)s1` the value was 138 to 139 °C; for `C[C@@H](NC(=O)c1ccc(-c2ccc(C#N)cc2)s1)[C@](O)(Cn1cncn1)c1ccc(F)cc1F`, 210 to 211 °C. Compound `CC(C)n1cc(C(=O)C(F)(F)F)c2ccc(C(F)(F)F)cc21` displayed a melting point of 92 to 93 °C. `COc1cc(/C=C/c2cc(/C=C/c3ccc4cc[nH]c4c3)n[nH]2)cc(OCc2ccccn2)c1` displayed a melting point of 88 to 93 °C. On to `O=C1N(Cc2ccc(C(F)(F)F)o2)c2ccccc2C12COc1cc3c(cc12)OC(F)(F)O3` (configuration not stated), for which the melting point was in the range of 59 to 60 °C. Take `CC(C)(C)c1ccc(Oc2nc(Nc3cccc(CO)c3)nc(Oc3ccccc3)n2)cc1`: the melting point is 47 to 50 °C. In turn, `CCc1ccc2c(c1)C1CN(C(=O)CCC(=O)c3ccc(F)cc3)CCC1N2` (configuration not stated) showed a melting point of 120 to 124 °C. As for `CC(C)n1nc(-c2c(-c3ccccc3)nn3ccc(OCc4ccccn4)cc23)ccc1=O`, the melting point lay in the range of 150 to 151 °C.

`CCCN(CCC)S(=O)(=O)c1cc(-c2csc(=Nc3cc(Cl)c(OC)cc3OC)n2C)ccc1Cl`: the melting point lay in the range of 173 to 175 °C. Under `CC1OC(Cn2cncn2)(c2ccccc2)C1(C)C` (configuration not stated) stands 102 °C; under `c1ccc(CCCCNCCOc2cccc3[nH]ccc23)cc1`, 99 to 101 °C; under `CC#CC(O)(C#CC)c1cc(-c2cccc(Cl)c2)ccc1N`, 112 to 114 °C. In turn, `Cc1cccc(C)c1N1C(=N)C(C)N(c2c(C)cccc2C)C1C(=O)OCc1ccc(Cl)cc1` (configuration not stated) came in with a melting point of 140 to 142 °C.

In turn, `COCCc1nc2cnc3cc(OCc4ccccc4)ccc3c2n1CC(C)(C)O` showed a melting point of 170 to 172 °C. As to `Cc1ccc(C2NCCS2)cc1` (configuration not stated), the melting point fell in the range of 92 to 93 °C.

In the case of `CC1=C(C2C=CN(C(=O)OCC(Cl)(Cl)Cl)c3ccccc32)SCC(=O)N1` (configuration not stated), the melting point lay in the range of 166 to 167 °C. `CNC(=O)c1ccc(C=CC(=O)OC)cc1` yielded a melting point of 210 °C. The compound `O=C(O)c1ccc(OCCCCCCc2cccc(O)c2O)c(Cl)c1` registered a melting point of 157 to 160 °C. `COC(=O)CCCCCCCn1cc(-c2ccccc2)c(-c2ccccc2)nc1=O` yielded a melting point of 80 to 83 °C. As for `COc1cc(COc2nn(-c3ccccc3)cc2C(=O)O)ccc1OCc1nc(-c2ccco2)oc1C`, the melting point lay in the range of 184 to 185 °C. For `O=C(O)CCCCCNC(=O)CCC(=O)Nc1cccc2ccccc12`, the melting point is 229 to 231 °C. Compound `Fc1ccc(Cn2c(NC3CCN(CCN(Cc4ccccc4)Cc4ccccc4)CC3)nc3ccccc32)cc1` yielded a melting point of 116 °C. Take `c1ccc(C2OC3(CCOCC3)c3ccccc32)cc1` (configuration not stated): the melting point was in the range of 132 to 134 °C. The compound `CCOc1nc2c(C)sc(C(=O)OC)c2n1Cc1ccc(-c2ccccc2)c(-c2nc(=O)o[nH]2)c1` came in with a melting point of 208 to 210 °C. As for `NC(=NO)c1c(F)cccc1C(F)(F)F`, the melting point was 155 to 157 °C. For `COC(=O)C(=NO)c1nc2cc(Cl)ccc2oc1=O` the value was 176 to 177 °C.

`Clc1ccc(-c2c[nH]nc2-c2ccncc2)cc1` came in with a melting point of 204 to 207 °C.

The compound `CN(CCC(=O)C(Cc1ccccc1)NC(=O)c1ccccc1)C(=O)N1CCCC1C(=O)O` (configuration not stated) returned a melting point of 38 to 68 °C. In turn, `Cc1nnc2n1-c1ccccc1NC2(C)C` showed a melting point of 177 to 178 °C. As to `CC1Oc2c(cc(CN3CCN(c4ccc(C(=O)NC5CC5)cc4)CC3)cc2-c2ccccc2)NC1=O` (configuration not stated), the melting point was in the range of 217 to 224 °C. Compound `O=C(NNS(=O)(=O)c1ccccc1)c1ccnc2ccccc12` had a melting point of 153 to 156 °C.

Compound `COc1ccc(OC)c2c(=O)c3ccccc3sc12` showed a melting point of 201 to 202 °C. Compound `C=CCn1c(=O)n(CCN2CCN(c3ccccc3OC)CC2)c(=O)c2cscc21` registered a melting point of 131 to 132 °C. Under `O=C(O)c1cc(F)c(F)c(F)n1` stands 81 to 82 °C; under `COc1cc(C=O)ccc1OCC1CO1` (configuration not stated), 56 to 58 °C. The compound `CC1COc2ccccc2O1` (configuration not stated) returned a melting point of 86 to 87 °C. For `CC(Oc1ccc(N(C)c2cc3ccc(Cl)cc3c(Cl)n2)cc1)C(=O)O` (configuration not stated), the melting point was 136 °C. With `Cc1ncc(COC(=O)c2ccncc2)cc1O`, the melting point stood at 180 °C. The compound `CCOc1cc(-c2ccc(C(F)(F)F)cc2)nc(-c2cccc(C(F)(F)F)c2)c1` gave a melting point of 95.1 °C. `CCN(CC)CCCOc1cccc(-c2oc3ccccc3c2C(=O)c2cc(C)cc(C)c2)c1`: the melting point is 114 to 121 °C. Regarding `Cc1cc2c(s1)Nc1ccccc1N=C2N1CCN(C)[C@@H](COc2ccccc2)C1`, the melting point is 74 to 88 °C. Under `CCOC(=O)C(C)Oc1ccc(Oc2cc3cc(Cl)ccc3nc2Cl)cc1` (configuration not stated) stands 56 °C; under `CC(C)CC1(C(CCN2C(=O)c3cccc(F)c3C2=O)C(=O)NO)CCN(CCc2ccccc2)C1=O` (configuration not stated), 145 to 146 °C. `COc1ccc2c(c1)C(c1ccccc1)=Nn1c(C)cnc1C2` showed a melting point of 140 °C. With `COC(=O)c1ccccc1-c1ccc(CN2C(=O)c3ccccc3C2=O)cc1`, the melting point was in the range of 148 to 150 °C.

As to `C=CCOc1cc(C(=O)OCC)nc2ccccc12`, the melting point lay within 71 to 72 °C. For `CC(=Cc1cc(Br)ccc1O)[N+](=O)[O-]` the value was 95 to 97 °C; for `Nc1c(-c2nc(-c3ccco3)n[nH]2)nnn1Cc1ccc(F)cc1`, 200 to 202 °C.
